The values below come from article PMC9627135 (Cancer discovery, 2022).

Structures are written as SMILES.

The test system of one data set is HOXA9/10 expression. Briefly: Time course of HOXA9/10 expression. Format: cell-based. The conditions noted are these: Supplementary Fig. S6D, S6E.
The next data set has as its target ENL-FKBP12(F36V) (Homo sapiens, UniProt Q03111). Briefly: dTAG-mediated degradation of ENL-FKBP12. The conditions noted are these: treatment for 6 or 24 hours. Format: cell-based.
The test system of data set [1] is primary human hepatocytes. The conditions noted are these: cited from earlier work.

For the compound `CC(C)N(C[C@H]1O[C@@H](n2cnc3c(N)ncnc32)[C@H](O)[C@@H]1O)[C@H]1C[C@@H](CCc2nc3cc(C(C)(C)C)ccc3[nH]2)C1` [EPZ-5676], the “kinetics of suppression of HOXA9/10 expression” value in the data set on HOXA9/10 expression is on record as “suppressed expression of the same genes at much later time points”.

As for `CC[C@H](C(=O)N1CCCC[C@H]1C(=O)O[C@H](CCc1ccc(OC)c(OC)c1)c1ccccc1OCC(=O)NCCCCCCOc1cccc2c1C(=O)N(C1CCC(=O)NC1=O)C2=O)c1cc(OC)c(OC)c(OC)c1` (stereo partly drawn) [dTAG13], on ENL-FKBP12(F36V), the “level of ENL-FKBP12 proteins” value is on record as “substantial decrease of ENL-FKBP12 proteins”.

Turning to `C[C@H]1CCCN1Cc1nc2cc(NC(=O)c3ccc4c(cnn4C)c3)ccc2[nH]1` [SGC-iMLLT], the “half-life in primary human hepatocytes” value in data set [1] is given as “modest half-life”.
